Measurements taken from patent US8765098B2, “Star polymers, methods of preparation thereof, and uses thereof” (International Business Machines Corporation, priority 2010, dated 2014).

Assay: Appearance of aqueous mixtures of star polymer, dye alone and loaded star polymers (FIG. 10)
Assay type: physicochemical
Details: in water, FIG. 10 vials A-D
Method: The solution was added drop-wise to water (0.9 mL) with rapid stirring, causing the water to rapidly and uniformly color from the dye. Excess solid dye material not adsorbed to the star polymer was removed by passing the mixture through a 0.2 micrometer syringe filter, thereby forming a clear and uniformly colored aqueous solution. The further addition of water had no visible effect on the homogeneity of the solution.
FIG. 10 is a photograph of four aqueous mixtures. […] The vial labeled C is an aqueous mixture of 5,10,15,20-(3,5-ditertbutylphenyl)porphyrin (M=2H) (DTBP) alone in water.

SMILES: CC(C)(C)c1cc(-c2c3nc(c(-c4cc(C(C)(C)C)cc(C(C)(C)C)c4)c4ccc([nH]4)c(-c4cc(C(C)(C)C)cc(C(C)(C)C)c4)c4nc(c(-c5cc(C(C)(C)C)cc(C(C)(C)C)c5)c5ccc2[nH]5)C=C4)C=C3)cc(C(C)(C)C)c1 [DTBP, 5,10,15,20-(3,5-ditertbutylphenyl)porphyrin (M=2H)]
- appearance of aqueous solution / mixture: clear and colorless
